ChEMBL document CHEMBL1201862, “PubChem BioAssay data set” (2004)
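Briefly, cells in 96-well plates were exposed to five compound concentrations for 48 h, and endpoints were estimated by linear interpolation. Here, GI50 denotes the concentration required for 50% inhibition of growth.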 The source made the active and inactive calls. Cut-off read from the data, not from the text of the source: active = GI50 up to about 1.1 µM and inactive = higher.

Columns and labels:
Assay in all cases: DTP human tumour cell line panel, 48 h
[1] = tested on: HT-29
[2] = tested on: EKVX
[3] = tested on: NCI-H226
[4] = tested on: SR
[5] = tested on: UACC-257
[6] = tested on: 786-0
[7] = tested on: A498
[8] = tested on: ACHN
[9] = tested on: HOP-92
[10] = tested on: U-251
[11] = tested on: NCI-H522
[12] = tested on: SNB-19
[13] = tested on: KM12
[14] = tested on: SK-OV-3
[15] = tested on: UACC-62
[16] = tested on: DU-145
[17] = tested on: Hs-578T
[18] = tested on: SK-MEL-28
[19] = tested on: CCRF-CEM

Compound | GI50 [1] | GI50 [2] | GI50 [3] | GI50 [4] | GI50 [5] | GI50 [6] | GI50 [7] | GI50 [8] | GI50 [9] | GI50 [10] | GI50 [11] | GI50 [12] | GI50 [13] | GI50 [14] | GI50 [15] | GI50 [16] | GI50 [17] | GI50 [18] | GI50 [19]
Cc1ccc(-n2c(=S)[nH]c3ccc(Br)cc3c2=O)cc1 | > 100 µM (inactive) | > 100 µM (inactive) | > 100 µM (inactive) | > 100 µM (inactive) | > 100 µM (inactive) | > 100 µM (inactive) | > 100 µM (inactive) | > 100 µM (inactive) | > 100 µM (inactive) | > 100 µM (inactive) | > 100 µM (inactive) | > 100 µM (inactive) | > 100 µM (inactive) |  |  |  |  |  | 
CN(C)c1ccc(/C=N/NC(=O)c2cnc3ccccc3c2)cc1 |  | 58.6 µM (inactive) | > 100 µM (inactive) |  | > 100 µM (inactive) | 78.5 µM (inactive) | > 100 µM (inactive) | > 100 µM (inactive) | 49.4 µM (inactive) | 38.7 µM (inactive) | 18.1 µM (inactive) | 48 µM (inactive) | 38.5 µM (inactive) | 26.5 µM (inactive) | > 100 µM (inactive) | 59.3 µM (inactive) | 25.5 µM (inactive) | > 100 µM (inactive) | 
C=C(C)C1CC2=C(O1)C(=O)c1cccc(O)c1C2=O (stereo not given) | 1.59 µM (inactive) | 1.17 µM (inactive) | 1.78 µM (inactive) |  | 0.271 µM (active) | 9.12 µM (inactive) | 5.46 µM (inactive) | 1.72 µM (inactive) | 0.604 µM (active) | 1.43 µM (inactive) | 0.378 µM (active) | 1.95 µM (inactive) | 1.69 µM (inactive) | 1.51 µM (inactive) | 0.883 µM (active) | 1.76 µM (inactive) | 1.16 µM (inactive) | 1.7 µM (inactive) | 0.209 µM (active)
CN1CCN(/C(N)=C(\C#N)C(=O)Nc2ccccc2)CC1 |  | > 100 µM (inactive) | > 100 µM (inactive) | > 100 µM (inactive) | > 100 µM (inactive) | > 100 µM (inactive) | > 100 µM (inactive) | > 100 µM (inactive) | > 100 µM (inactive) | > 100 µM (inactive) |  | > 100 µM (inactive) | > 100 µM (inactive) | > 100 µM (inactive) | > 100 µM (inactive) | > 100 µM (inactive) |  | > 100 µM (inactive) | > 100 µM (inactive)
C=CC[P@]1(=O)O[C@H](c2ccccc2)C(C)N1C(C)C (stereo not given in full) | > 100 µM (inactive) | > 100 µM (inactive) | > 100 µM (inactive) | > 100 µM (inactive) | > 100 µM (inactive) | > 100 µM (inactive) | > 100 µM (inactive) | > 100 µM (inactive) | > 100 µM (inactive) | > 100 µM (inactive) | > 100 µM (inactive) | > 100 µM (inactive) | > 100 µM (inactive) | > 100 µM (inactive) | > 100 µM (inactive) |  |  | > 100 µM (inactive) | > 100 µM (inactive)
Brc1ccc(-c2nc(-c3ccc(Br)cc3)n(-c3ccccc3)n2)cc1 | 26.9 µM (inactive) | 85.5 µM (inactive) | > 100 µM (inactive) |  | 81.1 µM (inactive) | > 100 µM (inactive) | > 100 µM (inactive) | > 100 µM (inactive) | > 100 µM (inactive) | > 100 µM (inactive) | 39 µM (inactive) | > 100 µM (inactive) | 49.5 µM (inactive) | > 100 µM (inactive) | > 100 µM (inactive) | > 100 µM (inactive) | > 100 µM (inactive) | > 100 µM (inactive) | 20.6 µM (inactive)
CCCc1c(Cl)nc(Cl)nc1Cl | 0.175 µM (active) | > 10 µM (inactive) | 0.0222 µM (active) |  | 2.13 µM (inactive) | 0.247 µM (active) | 19.5 µM (inactive) | 1.64 µM (inactive) | 2.65 µM (inactive) | 1.22 µM (inactive) |  | 4.71 µM (inactive) | 3.61 µM (inactive) | > 100 µM (inactive) | 0.822 µM (active) | 5.47 µM (inactive) | 3.52 µM (inactive) | 0.336 µM (active) | 0.0265 µM (active)
COc1cc2c3c(n(C)c(=O)c2cc1OC)-c1cc2c(cc1/C3=C\CCCCCBr)OCO2 | 11.2 µM (inactive) | 22.3 µM (inactive) |  | 0.43 µM (active) | 25.1 µM (inactive) | 5.77 µM (inactive) | 14.5 µM (inactive) | 4.39 µM (inactive) | 4.52 µM (inactive) | 3.51 µM (inactive) | 3.73 µM (inactive) | 6.5 µM (inactive) | 31.9 µM (inactive) | 7.91 µM (inactive) |  |  | > 100 µM (inactive) | 0.115 µM (active) | 2.38 µM (inactive)
COc1ccc(OC)c(C#Cc2ccc(OC)c(C(=O)NCCc3ccc(F)cc3)c2)c1 | 3.17 µM (inactive) | > 100 µM (inactive) |  | 0.783 µM (active) | > 100 µM (inactive) | > 100 µM (inactive) | 9.84 µM (inactive) | > 100 µM (inactive) |  | 6.07 µM (inactive) | 2.25 µM (inactive) | 61.2 µM (inactive) | 4.13 µM (inactive) |  |  |  | > 100 µM (inactive) | 1.73 µM (inactive) | 
N#Cc1c2c(c(N3CCOCC3)n3c1nc1ccccc13)CCCC2 | 16.4 µM (inactive) | 16.2 µM (inactive) | 14 µM (inactive) |  | 29.2 µM (inactive) | 16.3 µM (inactive) | 19 µM (inactive) | 14.8 µM (inactive) | 17.1 µM (inactive) | 14.3 µM (inactive) | 16.3 µM (inactive) | 16.6 µM (inactive) | > 100 µM (inactive) | 22.6 µM (inactive) | 22.3 µM (inactive) | 19 µM (inactive) | > 100 µM (inactive) | 23.5 µM (inactive) | 2.75 µM (inactive)
OCC1C2CCC3(OCCO3)C12 (stereo not given) | > 100 µM (inactive) | > 100 µM (inactive) | > 100 µM (inactive) | > 100 µM (inactive) | > 100 µM (inactive) | > 100 µM (inactive) |  | > 100 µM (inactive) | > 100 µM (inactive) | > 100 µM (inactive) | > 100 µM (inactive) | > 100 µM (inactive) | > 100 µM (inactive) | > 100 µM (inactive) | 17.6 µM (inactive) | > 100 µM (inactive) |  | > 100 µM (inactive) | > 100 µM (inactive)
COC(=O)C1CCC(=O)N1C(c1ccccc1)c1cc(OC)c(OC)c(OC)c1 (stereo not given) | 29.4 µM (inactive) | 91 µM (inactive) | > 100 µM (inactive) | 50.9 µM (inactive) | > 100 µM (inactive) | > 100 µM (inactive) | 82.4 µM (inactive) | > 100 µM (inactive) | 99.3 µM (inactive) | 80.4 µM (inactive) | 40.2 µM (inactive) | 76.4 µM (inactive) | 45.8 µM (inactive) | > 100 µM (inactive) | 60.5 µM (inactive) | > 100 µM (inactive) |  | 99.8 µM (inactive) | 53.3 µM (inactive)
CC[C@]1(Cc2ccc(OC)c(OC)c2)C=[N+]([O-])O[C@H](OC2CCCCC2c2ccccc2)[C@@H]1OC(C)=O (stereo not given in full) | 45.1 µM (inactive) | 46.7 µM (inactive) | 32.5 µM (inactive) | 22.8 µM (inactive) | 67.3 µM (inactive) | 45.3 µM (inactive) | > 100 µM (inactive) | 30.5 µM (inactive) | 57.7 µM (inactive) | 46.6 µM (inactive) | 25.6 µM (inactive) | 92.5 µM (inactive) | 39.6 µM (inactive) | 84.9 µM (inactive) | 56.1 µM (inactive) | 49 µM (inactive) |  | 61.7 µM (inactive) | 23.2 µM (inactive)
Cc1cn(C(Cc2ccccc2)OCCO)c(=O)[nH]c1=O (stereo not given) | > 100 µM (inactive) | > 100 µM (inactive) | > 100 µM (inactive) | > 100 µM (inactive) | > 100 µM (inactive) | > 100 µM (inactive) | > 100 µM (inactive) | > 100 µM (inactive) | > 100 µM (inactive) | > 100 µM (inactive) |  | > 100 µM (inactive) | > 100 µM (inactive) |  | > 100 µM (inactive) | > 100 µM (inactive) |  | > 100 µM (inactive) | > 100 µM (inactive)
Cc1ccc(/N=N/c2c(O)ccc3ccccc23)c(C)c1 | > 100 µM (inactive) |  | > 100 µM (inactive) |  | > 100 µM (inactive) | > 100 µM (inactive) | > 100 µM (inactive) |  | > 100 µM (inactive) | > 100 µM (inactive) |  | > 100 µM (inactive) | > 100 µM (inactive) | > 100 µM (inactive) | > 100 µM (inactive) | > 100 µM (inactive) | > 100 µM (inactive) | > 100 µM (inactive) | 
CCOC(=O)C1=C(C(=O)OCC)C2(c3ccccc3)N(O1)c1ccccc1C2(C)C (stereo not given) | 69.3 µM (inactive) | 45.4 µM (inactive) | 32.4 µM (inactive) |  | 39.2 µM (inactive) | 75.7 µM (inactive) | 58.7 µM (inactive) |  |  | 34 µM (inactive) | 22.6 µM (inactive) | 38.3 µM (inactive) | 58.1 µM (inactive) | 30.1 µM (inactive) | 36.5 µM (inactive) |  |  | 44.6 µM (inactive) | 39.4 µM (inactive)
OCCN(C1=NCCN1)/[N+](=C/c1ccc(Cl)cc1)[CH-]c1ccc(Cl)cc1 | 94.8 µM (inactive) | > 100 µM (inactive) | > 100 µM (inactive) | 99.1 µM (inactive) | > 100 µM (inactive) | > 100 µM (inactive) |  | > 100 µM (inactive) |  | > 100 µM (inactive) | 84.3 µM (inactive) | > 100 µM (inactive) | > 100 µM (inactive) | > 100 µM (inactive) | > 100 µM (inactive) |  | > 100 µM (inactive) | > 100 µM (inactive) | 61.8 µM (inactive)
